# According to PubChem BioAssay (NCI):
#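 GI50: concentration for 50% inhibition of growth. The concentration for full growth arrest is given as TGI.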
# Legend:
# Assay in all cases: NCI tumour cell line growth inhibition, 384-well format
# [1] = system: ACHN renal
# [2] = system: COLO 205 colon
# [3] = system: DU-145 prostate
# [4] = system: EKVX NSCLC
# [5] = system: HCT-116 colon
# [6] = system: HS 578T breast
# [7] = system: M14 melanoma
# [8] = system: MCF7 breast
# [9] = system: NCI/ADR-RES ovarian
# [10] = system: OVCAR-3 ovarian
# [11] = system: SF-539 CNS
# [12] = system: SW-620 colon
# [13] = system: T-47D breast
structure (smiles),measurement,setting,value
C[C@@H]1CN(CC(=O)N2CC(C)(C)c3nc(CO)c(Cc4ccc(F)cc4)cc32)[C@@H](CN2CCOC[C@H]2C)CN1,GI50,[1],61.8 µM
same,TGI,[1],> 100 µM
same,GI50,[2],20.5 µM
same,TGI,[2],47 µM
same,GI50,[3],> 73.5 µM
same,TGI,[3],> 100 µM
same,GI50,[4],29.9 µM
same,TGI,[4],> 88.8 µM
same,GI50,[5],35.6 µM
same,TGI,[5],> 91.2 µM
same,GI50,[6],7.75 µM
same,TGI,[6],> 67.2 µM
same,GI50,[7],17.2 µM
same,TGI,[7],31.1 µM
same,GI50,[8],35.2 µM
same,TGI,[8],79.5 µM
same,GI50,[9],> 70.9 µM
same,TGI,[9],> 100 µM
same,GI50,[10],42.5 µM
same,TGI,[10],> 83.1 µM
same,GI50,[11],32.4 µM
same,TGI,[11],67.2 µM
same,GI50,[12],53.5 µM
same,TGI,[12],97.4 µM
same,GI50,[13],22.4 µM
same,TGI,[13],49 µM
